For assay [1], the target named is Intestinal-type alkaline phosphatase (Bos taurus, UniProt P19111). In words: Alkaline Phosphatase Inhibition Assay. The settings on record: pH 9.8; 37 °C. How it is done: (§1) The assay conditions were optimized with some changes in formerly reported spectrophotometric method. The composition of assay buffer of pH 9.8 was as: […], 0.05 mM ZnCl2 and 2.5 mM MgCl2. All compounds were tested at the initial concentration of 0.2 mM. A total assay volume of 50 μL contained 10 μL of tested compound, followed by the addition of 20 μL of either b-TNAP (1:800 times diluted enzyme in assay buffer) or 20 μL of c-IAP (1:800 times diluted enzyme in same assay buffer). After incubating the reaction mixture for 3-5 minutes at 37 °C, pre-read was taken by measuring luminescence with the help of microplate reader (BioTek FLx800, Instruments, Inc. USA). After that, 20 μL of substrate (CDP-Star) at the concentration of (110 μM) was added to the reaction mixture. Then the reaction mixture was again incubated for 15-20 min at 37 °C and after read was taken to measure the change in the luminescence. Total activity control (without inhibitor or negative control) was used for comparison of the activity of each test compound. L-phenylalanine (at concentration of 4 mM per well) and Levamisole (at concentration of 2 mM per well) were used as reference standards against calf intestinal alkaline phosphatase (c-IAP) and bovine tissue-nonspecific alkaline phosphatase (b-TNAP) respectively.

The target in assay [2] is 5'-nucleotidase (Homo sapiens, UniProt P21589). The assay is described as follows: Ecto-5'-Nucleotidase Inhibition Assay. The conditions noted are these: pH 7.4; 37 °C. How it is done: (§2) The enzymatic assay of both human and rat ecto-5'-nucleotidase were performed with slight modifications in the previously described method. […] Aliquots of 50 μL of each reaction mixture was transferred into CE mini vial and hydrodynamically injected into the capillary by using pressure of 0.5 psi for 5s. The electrosmatic separation of substrate and product peaks occurred by applying voltage of 15 kV. The concentration of product i.e. adenosine was estimated by calculating the area under its absorbance peak at 260 nm.

Assay [3] has as its target T1, 5'-nucleotidase (Rattus norvegicus, UniProt P21588).
T1 sequence (P21588 whole entry): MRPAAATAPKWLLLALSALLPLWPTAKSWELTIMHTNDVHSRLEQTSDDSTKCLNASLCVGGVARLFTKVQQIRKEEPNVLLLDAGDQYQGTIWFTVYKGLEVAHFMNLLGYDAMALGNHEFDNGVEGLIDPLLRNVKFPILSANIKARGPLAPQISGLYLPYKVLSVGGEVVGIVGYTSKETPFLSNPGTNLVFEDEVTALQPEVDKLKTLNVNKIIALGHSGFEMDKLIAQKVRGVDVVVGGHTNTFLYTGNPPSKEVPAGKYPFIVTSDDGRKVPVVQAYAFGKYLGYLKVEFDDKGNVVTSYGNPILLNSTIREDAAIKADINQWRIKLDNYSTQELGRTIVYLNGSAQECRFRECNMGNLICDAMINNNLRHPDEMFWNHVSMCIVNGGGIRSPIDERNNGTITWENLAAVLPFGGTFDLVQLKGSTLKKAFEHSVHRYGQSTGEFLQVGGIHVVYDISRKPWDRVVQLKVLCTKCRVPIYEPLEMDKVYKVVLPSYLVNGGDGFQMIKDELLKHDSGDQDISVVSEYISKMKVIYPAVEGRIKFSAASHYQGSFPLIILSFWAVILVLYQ
The assay is described as follows: Ecto-5'-Nucleotidase Inhibition Assay. The conditions noted are these: pH 7.4; 37 °C. How it is done:
as §2

For assay [4], the target named is T2, Alkaline phosphatase, tissue-nonspecific isozyme (Bos taurus, UniProt P09487).
T2 sequence (P09487 whole entry): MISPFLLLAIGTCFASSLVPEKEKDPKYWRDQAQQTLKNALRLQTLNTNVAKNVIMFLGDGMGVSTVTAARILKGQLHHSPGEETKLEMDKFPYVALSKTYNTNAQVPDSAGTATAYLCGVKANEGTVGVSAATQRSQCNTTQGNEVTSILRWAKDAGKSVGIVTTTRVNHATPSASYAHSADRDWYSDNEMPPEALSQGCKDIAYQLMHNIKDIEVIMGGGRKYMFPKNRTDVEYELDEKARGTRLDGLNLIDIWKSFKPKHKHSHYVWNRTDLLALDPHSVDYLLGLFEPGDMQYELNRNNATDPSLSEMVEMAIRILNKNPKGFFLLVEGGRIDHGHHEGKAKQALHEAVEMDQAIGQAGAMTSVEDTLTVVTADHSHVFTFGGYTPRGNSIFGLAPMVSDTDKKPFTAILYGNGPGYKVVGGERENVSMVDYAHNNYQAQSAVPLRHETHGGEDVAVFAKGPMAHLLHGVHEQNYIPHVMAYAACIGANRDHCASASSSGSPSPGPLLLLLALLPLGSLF
In words: Alkaline Phosphatase Inhibition Assay. The settings on record: pH 9.8; 37 °C. How it is done: as §1

From BindingDB's records for doi:10.1111/cbdd.12861 (Quaid-i-Azam University, 2017) come the findings set out here.

Chain of Intestinal-type alkaline phosphatase (P19111 whole entry): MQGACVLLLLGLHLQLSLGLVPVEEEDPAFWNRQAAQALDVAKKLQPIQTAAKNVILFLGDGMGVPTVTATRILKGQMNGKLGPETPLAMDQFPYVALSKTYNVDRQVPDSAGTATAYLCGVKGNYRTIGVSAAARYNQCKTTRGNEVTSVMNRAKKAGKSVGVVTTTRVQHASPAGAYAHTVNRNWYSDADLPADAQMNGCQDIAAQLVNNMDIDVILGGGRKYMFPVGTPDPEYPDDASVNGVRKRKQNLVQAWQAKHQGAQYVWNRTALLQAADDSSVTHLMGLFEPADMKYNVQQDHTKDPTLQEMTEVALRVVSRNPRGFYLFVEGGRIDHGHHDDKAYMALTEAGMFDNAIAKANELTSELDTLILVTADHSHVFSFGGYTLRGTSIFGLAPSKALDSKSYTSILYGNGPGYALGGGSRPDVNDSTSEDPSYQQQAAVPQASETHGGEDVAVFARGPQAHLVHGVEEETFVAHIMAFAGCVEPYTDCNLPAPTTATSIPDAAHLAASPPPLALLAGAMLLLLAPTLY
Chain of 5'-nucleotidase (Homo sapiens, UniProt P21589) (P21589 whole entry): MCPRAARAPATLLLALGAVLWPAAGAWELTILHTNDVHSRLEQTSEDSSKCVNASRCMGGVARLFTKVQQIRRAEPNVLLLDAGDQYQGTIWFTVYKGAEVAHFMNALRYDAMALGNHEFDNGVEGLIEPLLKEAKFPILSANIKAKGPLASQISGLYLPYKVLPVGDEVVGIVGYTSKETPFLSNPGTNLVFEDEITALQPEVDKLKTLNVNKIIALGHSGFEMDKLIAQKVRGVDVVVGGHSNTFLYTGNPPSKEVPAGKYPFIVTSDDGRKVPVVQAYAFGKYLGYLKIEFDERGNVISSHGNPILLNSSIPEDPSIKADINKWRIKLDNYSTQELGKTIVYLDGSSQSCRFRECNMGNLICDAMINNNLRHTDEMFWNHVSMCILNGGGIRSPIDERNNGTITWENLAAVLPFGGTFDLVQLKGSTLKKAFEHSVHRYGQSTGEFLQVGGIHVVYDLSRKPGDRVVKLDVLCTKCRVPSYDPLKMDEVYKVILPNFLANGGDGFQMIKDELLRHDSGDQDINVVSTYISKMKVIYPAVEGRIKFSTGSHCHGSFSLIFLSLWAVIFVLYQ

In the case of `O=C(N/N=C/c1ccc(Cl)cc1)c1ccncc1` [(E)-N'-(4'-Chlorobenzylidene)isonicotinohydrazide (3a)], the values for the IC50 (in assay [1]; at 5'-nucleotidase [2]; against 5'-nucleotidase [3]) were 670 nM, 1670 nM and 1080 nM, respectively.

Take `COc1cc(/C=N/NC(=O)c2ccncc2)ccc1O` [(E)-N'-(4'-Hydroxy-3-methoxybenzylidene)isonicotinohydrazide (3g)]: the IC50 was determined as 350 nM in assay [4] and 1920 nM in assay [1].

On to `O=C(N/N=C/c1cccnc1)c1ccncc1` [(E)-N'-(Pyridin-3'-ylmethylene)isonicotinohydrazide (3i)], for which the IC50 turned out to be 2430 nM in assay [4], 1460 nM in assay [1], 210 nM against 5'-nucleotidase [2] and 3010 nM on 5'-nucleotidase [3].

Consider `C/C(=N\NC(=O)c1ccncc1)N1N=C(c2ccc(F)cc2)CC1c1ccccc1` (stereo not given) [(E)-N'-(1-(3-(4-fluorophenyl)-5-phenyl-4,5-dihydro-1H-pyrazol-1yl)ethylidene)isonicotino hydrazide (3j)], for which the IC50 in assay [4] was 1060 nM; in assay [1] it was 3980 nM; at 5'-nucleotidase [2] it was 190 nM; at 5'-nucleotidase [3], 360 nM.

For the compound `O=C(N/N=C/c1ccc(F)cc1)c1ccncc1` [(E)-N'-(4'-Fluorobenzylidene)isonicotinohydrazide (3c)], the IC50 in assay [4] was determined as 2260 nM; in assay [1] it was 17500 nM; on 5'-nucleotidase [2] it was 6760 nM; on 5'-nucleotidase [3], 440 nM.

As to `O=C(N/N=C/c1ccncc1)c1ccncc1` [(E)-N'-(Pyridin-4'-ylmethylene)isonicotinohydrazide (3h)], the IC50 is 2460 nM in assay [1], 2120 nM at 5'-nucleotidase [2] and 2890 nM against 5'-nucleotidase [3].

As for `O=C(N/N=C/c1ccccc1O)c1ccncc1` [(E)-N'-(2'-hydroxybenzylidene)isonicotinohydrazide (3e)], the results for the IC50 (in assay [1]; against 5'-nucleotidase [2]; against 5'-nucleotidase [3]) were 1440 nM, 1340 nM and 450 nM, respectively.

Turning to `O=C(N/N=C/c1ccc(Br)cc1)c1ccncc1` [(E)-N'-(4'-Bromobenzylidene)isonicotinohydrazide (3b)], the IC50 came out at 4130 nM in assay [4], 9720 nM in assay [1], 230 nM on 5'-nucleotidase [2] and 7130 nM against 5'-nucleotidase [3].

Turning to `COc1ccc(/C=N/NC(=O)c2ccncc2)cc1` [(E)-N'-(4'-Methoxybenzylidene)isonicotinohydrazide (3d)], the IC50 in assay [4] amounted to 560 nM; in assay [1], 1740 nM; on 5'-nucleotidase [2], 13800 nM; against 5'-nucleotidase [3], 310 nM.

In the case of `O=C(N/N=C/c1cccc([N+](=O)[O-])c1)c1ccncc1` [(E)-N'-(3'-Nitrobenzylidene)isonicotinohydrazide (3f)], the IC50 was 1820 nM in assay [4], 7340 nM in assay [1], 1900 nM against 5'-nucleotidase [2] and 210 nM against 5'-nucleotidase [3].
